Reference: US20170252392A1, “COMPOSITION FOR IMPROVEMENT, TREATMENT OR PREVENTION OF CONSTIPATION COMPRISING CASSIA SEED LACTIC ACID BACTERIA FERMENTED PRODUCT AS EFFECTIVE INGREDIENT, AND METHOD FOR PREPARING SAME” (HAENAM NATURAL FARMING ASSOCIATION COOPERATION, priority 2014, published 2017)

What was measured:
[1] = tested on: Sprague-Dawley (SD) rats with loperamide-induced constipation; assay: Colonic transits of carmine dye (Experimental Example 3); type: in vivo, rat; details: 20 min after oral carmine dye
Protocol: At day 6, 3 mL of carmine dye at a concentration of 1.5% (w/v) in physiological saline was administered orally to the experimental animals. 20 min after the oral administration, the experimental animals were sacrificed. Thereafter, in each experimental animal, both ends of the site of the colon from the appendix to the rectum were ligated. The colon site was excised and washed with PBS. The colonic transits of the carmine dye were measured from FIG. 6.

[2] = tested on: Sprague-Dawley (SD) rats with loperamide-induced constipation; assay: Prevention of loperamide-induced constipation: number and weight of feces (Experimental Example 2); type: in vivo, rat
Protocol: Four-week-old male Sprague-Dawley (SD) rats were purchased from Damul Science (Daejeon, Korea) and bred at a temperature of 20±2° C. and a humidity of 55±5% on a 12 h light-dark cycle. The experimental animals were acclimated for 1 week after purchase and were divided into the experimental groups (5 animals per group) shown in Table 3.
All experimental groups other than the normal control (NOR) and the negative control (LOP) were administered orally the respective drugs (positive controls) or the respective fermented products of Preparative Example 4 for 5 days before loperamide administration.
The negative control (LOP), the positive controls (CON1, CON2), and all experimental groups other than the normal control (NOR) were administered subcutaneously loperamide for 5 days to induce constipation. The experimental animals were sacrificed on day 6 after initiation of the loperamide administration.

## CN(C)C(=O)C(CCN1CCC(O)(c2ccc(Cl)cc2)CC1)(c1ccccc1)c1ccccc1 [loperamide]
[1]; negative control (LOP): loperamide 4 mg/kg s.c. 5 days, normal control 13.4±0.94 cm
  Colonic transit of the carmine dye: 6.6±0.75 cm
[2]; negative control (LOP): loperamide 4 mg/kg subcutaneously for 5 days, normal control 4.8±0.89
  Weight of feces: 2.6±0.32
[2]; negative control (LOP): loperamide 4 mg/kg subcutaneously for 5 days, normal control 47.2±5.8
  Number of feces: 23.1±3.6

## sennoside
[1]; sennoside 50 mg/kg oral before loperamide (CON1)
  Colonic transit of the carmine dye: significantly increased compared to that in the negative control (LOP)
[2]; sennoside 50 mg/kg oral before loperamide 4 mg/kg s.c. 5 days (CON1)
  Number of feces: more effective in increasing the number of feces than Dulcolax-S
[2]; sennoside 50 mg/kg oral before loperamide (CON1), compared with CON2
  Weight of feces: no significant difference in the weight of feces
